From US20060135587A1, “Method and compounds for promoting healing and reducing inflammation” (priority 2002, published 2006)

Experiments:
[1] = system: guinea pigs; experiment: Acute toxicity (LD50) in guinea pigs; assay type: in vivo; details: oral administration
Source text: It is contemplated that in clinical use, treatment using oral tablets will take two to three weeks, with each patient receiving three tablets containing 0.6 g active compound per day.

[2] = system: neurogenic dystrophy of the myocardium; experiment: Myocardial infarction model (electrostimulation), enzymes in rabbit myocardium; assay type: in vivo, rabbits; details: 10 mg/kg; 48 hours after electrostimulation
Source text: The effect of Compound 2 on myocardial tissue in an experimental model of myocardial infarction was examined. In this model system neurogenic dystrophy of the myocardium was induced in rats or rabbits by electrical stimulation of the reflexogenic zone of the aortic arch by implanted electrodes for a period of three hours. […] These changes are accompanied by changes in biochemical indicators such as creatine phosphate, cAMP, and calcium ion concentrations, and changes in the activity of redox enzymes such as succinate dehydrogenase, lactate dehydrogenase, and glucose-6-phosphate dehydrogenase. At a later stage organic lesions of the myocardium such as necrotic and fibrosclerotic foci can be observed.
The effect of Compound 2 given intraperitoneally or orally on these indicators was examined in rats and rabbits following electrostimulation as described above. The effects on levels of creatine phosphate in rat myocardial are shown in Table 19, and the effects on adenosine triphosphatase (ATPase), succinate dehydrogenase and glucose-6-phosphate dehydrogenase rabbit myocardium are shown in Table 20. The effects on cAMP and Ca^++ levels in rabbit myocardial tissue are shown in FIG. 5, and effects on creatine kinase in rabbit myocardium and blood and the levels of creatine phosphate in myocardium are shown in FIG. 6.

[3] = system: myocardial infarction; experiment: Clinical study in subacute phase of myocardial infarction (Example 24); assay type: in vivo, human
Protocol: The effect of Compound 2 therapy in patients suffering from the subacute phase of myocardial infarction (MI) was assessed. The patients were divided into two groups. There were no substantial differences between the groups in terms of age and basic features of necrotic foci. Each patient continued to receive the treatment which s/he had been given prior to commencement of the trial. Compound 2 was administered in addition to the previous treatment. The first group included 63 patients who received conventional therapy, i.e. nitrates, anticoagulants and/or hypotensive agents as appropriate, and the second group comprised 44 patients who were treated with Compound 2 at a dose of 600 mg per day from the 7th to the 28th day after diagnosis of myocardial infarction, in addition to receiving conventional treatment. The control group included 14 healthy men aged from 26 to 42. The average age of patients in the first group was 50.3 years, and in the second group, 49.5 years.
Clinical evidence from daily examinations of both groups and the results of electrocardiagraphic examination in 12 abductions were assessed over the entire observation period. A number of analyses were made on the 7th and 28th day of progress of MI, including clinical blood count, plasma bilirubin, sugar, creatinine, cholesterol, β3-lipoproteins, potassium and sodium, and urine analysis; the activity of the prothrombin complex and the time of re-calcification were also determined. Central haemodynamics were examined using the method of body integral rheography, whereby the stroke volume and cardiac indices were calculated. Indices of left ventricular contractility—terminal diastolic volume, ejection fraction, and the extent of systolic contraction of anteroposterior cavity dimensions (% ΔS)— were examined using the echography method using an Aloka SSD-119 apparatus (Japan). Central and intracardiac haemodynamics was investigated on the 1st, 7th; 14th, 21st and 28th days of the disease.

[4] = system: lesions of the gastric mucosa; experiment: Gastric lesions induced by electrostimulation of immobilised rats; assay type: in vivo
Protocol: The models used gastric ulcers induced by
a) Electrostimulation of immobilised rats for 3 hours;
The compounds were administered intraperitoneally at a dose of 20 mg/kg; in the cryogenic ulcer model compound 2 was administered either intraperitoneally (10 mg/kg) or orally (20 mg/kg twice daily, ie. a total of 40 mg/kg/day) and was compared to orally-administered gastrocepin (1 mg/kg twice daily, ie. a total of 2 mg/kg/day).

[5] = system: bone plate defect; experiment: Repair of bone plate defect of the rat lower jaw; assay type: in vivo, rats; details: 50 mg/kg over the course of three months
Protocol: A round or oval defect of the bone plate with a diameter of 2.5 mm was produced in the bone tissue of the rat lower jaw, using a dental drill under ether anaesthesia. In the post-operative period, the animals were kept in separate cages, with normal food and water ad libitum. The experiments were performed on 130 male rats weighing 180-200 g, with 10 rats in each group.
The animal test groups were treated with Compound 2 (50 or 100 mg/kg) or methyl uracil (50 mg/kg) 24 hours after the damage and on a daily basis for three months. […] The following groups were used:
The repair pattern of the injured bone was assessed morphologically on tissue sections after 30, 60 and 90 days. The sections were examined by light microscopy at magnifications of ×15, ×100, ×200, and ×400.

[6] = system: bradykinin-induced inflammation; experiment: Bradykinin-induced acute inflammation in rats; assay type: in vivo
Protocol: Acute inflammation was induced by sub-plantar injection of 0.1 ml of 0.01% of bradykinin in saline solution into the left paws of male rats weighing 180-200 g. The acuteness of the inflammation was assessed 30 minutes after injection of bradykinin by the change in the paw volume. The anti-inflammatory effect, assessed by the reduction of swelling, was expressed as a percentage of the initial paw […] compared to controls. The test substances were administered orally via an intra-gastric tube for three days and at one hour before administration of bradykinin. […] These were administered orally to rats for 3 days and at one hour before the injection of the agent. There were 12 rats in each group.

[7] = system: carrageenin-induced inflammation; experiment: Carrageenin-induced inflammation in intact and adrenalectomized rats; assay type: in vivo
Protocol: An acute inflammatory oedema was induced in intact and adrenalectomized male rats weighing 180-200 g by sub-plantar injection of 0.1 ml of 1% carrageenin solution into the left paw (Winter et al., 1962). The same volume of saline solution was injected into the contralateral paw. […] There were 10 rats in each group.
The degree of carrageenin-induced inflammation of the ankle joints was assessed at 3 hours after the induction of the inflammation, on the basis of the change in weight of the experimental and control paws (reaction index).

[8] = Healing effect over the course of 3 days
[9] = Protective effect, 30 minutes before the test
[10] = Adrenalectomized animals, 50 mg/kg 4 days + carrageenin
[11] = Adrenalectomized animals, 100 mg/kg 4 days + carrageenin
[12] = Intact animals, 100 mg/kg 4 days + carrageenin

In the case of `CC[n+]1cn(C)c(C(=O)NC)c1C(=O)NC.O=S(=O)([O-])c1ccccc1` [Compound 2, 1-methyl-3-ethyl-4,5-bis(N-methylcarbamoyl)-imidazolium benzenesulfonate], the LD50 [1] is reported as “more than 20000 mg/kg”, the “ATPase” value [2] is reported as 0.47 ± 0.13 µM/mg/min and the “Glucose-6-phosphate dehydrogenase (optical density units)” value [2] is reported as 6.2 ± 0.7 optical density units. The “Succinate dehydrogenase (optical density units)” value [2] was 44.2 ± 6.7 optical density units, the “left ventricular myocardial contractility” value ([3]; 600 mg per day combined with conventional therapy) was “increased the rate and extent of regeneration of left ventricular myocardial contractility” and the clinical side effects ([3]; 600 mg per day, 7th to 28th day of the disease) was “did not produce any clinical side effects”. The serum bilirubin ([3]; 600 mg per day, does not exceed the upper limit of standard values) was “increase in unconjugated and hence total bilirubin in serum”, the “% reduction of degree of ulceration” value [4, 8] was 50% and the “Average number of lesions per animal” value [4, 8] was 1.7 ± 0.2. For the same compound, the “% reduction of degree of ulceration” value [4, 9] was 66%, the “% reduction of ulcerated area” value [4, 9] was 91% and the Area of lesion [4, 9] was 2.8 ± 2.1. The “Average number of lesions per animal” value ([4]; Protective effect, 30 minutes before the test, 20 mg/kg intraperitoneally) was 2.4 ± 0.8, the “closing of bone defect” value [5] was “the defect was almost fully closed by the newly formed primary callus bone tissue” and the “Increase in paw volume” value ([6]; 20 mg/kg orally) was 0.41 mL. For the same compound, the “Paw volume 30 minutes after administration of bradykinin” value ([6]; 20 mg/kg orally) was 1.80 ± 0.060 mL, the Paw volume initial ([6]; 20 mg/kg orally) was 1.39 ± 0.040 mL and the “Swelling inhibition (%)” value ([6]; 20 mg/kg orally) was 40.58%. The “Increase in paw volume” value ([6]; 50 mg/kg orally) was 0.34 mL, the “Paw volume 30 minutes after administration of bradykinin” value ([6]; 50 mg/kg orally) was 1.69 ± 0.060 mL and the Paw volume initial ([6]; 50 mg/kg orally) was 1.35 ± 0.038 mL. For the same compound, the “Swelling inhibition (%)” value ([6]; 50 mg/kg orally) was 50.72%, the “Inhibition of oedema(%)” value [7, 10] was 27.88% and the “Reaction index (%)” value [7, 10] was 31.04 ± 2.49 %. The “Inhibition of oedema(%)” value [7, 11] was 44.43%, the “Reaction index (%)” value [7, 11] was 25.63 ± 2.86 % and the “Inhibition of oedema(%)” value ([7]; Intact animals, 50 mg/kg orally 4 days + carrageenin) was 30.41%. For the same compound, the “Reaction index (%)” value ([7]; Intact animals, 50 mg/kg orally 4 days + carrageenin, 3 hours) was 29.96 ± 2.30 %, the “Inhibition of oedema(%)” value [7, 12] was 47.43% and the “Reaction index (%)” value [7, 12] was 22.63 ± 2.86 %.
